Measurements published in patent US12540141B2, “Spiropyrrolidine derived antiviral agents” (priority 2020, dated 2026).
pEC50, pIC50: −log10 of the molar value. Where two headings read alike, the source gives them in different places.

Tests used:
SARS-CoV-2 3CL-protease = SARS-CoV-2 3CL-protease (Severe acute respiratory syndrome coronavirus 2, UniProt P0DTD1); assay: SARS-CoV-2 3C-Like (3CL) Protease Fluorescence Assay (FRET); format: biochemical; conditions: SARS-CoV-2 3CL-protease 10 nM, 30 min preincubation at RT, substrate 40 μM
[1] = tested on: 229E human corona virus (hCoV); assay: 229E Live Virus Assay (MRC-5 cells, CPE read by ATPlite); format: cell-based, hCoV-229E
[2] = Human coronavirus 229E, MRC5, hCoV-229E live virus in MRC-5 cells, MOI 0.05, CPE by ATPlite, run in duplicate

SMILES | pIC50 (SARS-CoV-2 3CL-protease) | pEC50 [1, 2] | pEC50 ([1]; hCoV-229E live virus in MRC-5 cells, MOI 0.05, CPE by ATPlite, run in duplicate) | pEC50 [1]
CC(C)C[C@@H](C(=O)N1C[C@]2(C[C@H]1C#N)C(=O)Nc1ccccc12)N(C)C(=O)c1ccc(-c2ccccc2)cn1 [Example 232] | 6.00 to 7.00 | > 7.00 |  | 
COc1cc(C(=O)N(C)[C@@H](CC(C)C)C(=O)N2C[C@]3(C[C@H]2C#N)C(=O)Nc2ccccc23)cn2cc(C(F)F)nc12 [Example 255] |  |  | > 7.00 | 
COc1cc(Cl)cc(C(=O)N(C)[C@@H](CC(C)C)C(=O)N2C[C@]3(C[C@H]2C#N)C(=O)Nc2ccccc23)c1 [Example 180] | > 7.00 | > 7.00 |  | 
CN(C(=O)[C@H](O)c1ccc(F)cc1)[C@@H](CC1CC1)C(=O)N1C[C@]2(C[C@H]1C#N)C(=O)Nc1ccccc12 [Example 415] | > 7.00 | > 7.00 |  | 
C[C@H](OC(=O)N[C@@H](CC(C)(C)C)C(=O)N1C[C@]2(C[C@H]1C#N)C(=O)Nc1ccc(Cl)cc12)c1ccc(F)cc1 [Example 494] |  |  |  | 6.00 to 7.00
CC(C)C[C@@H](C(=O)N1C[C@]2(C[C@H]1C#N)C(=O)Nc1ccccc12)N(C)C(=O)c1ccc2ccc(Br)cc2c1 [Example 230] | 6.00 to 7.00 | > 7.00 |  | 
COc1cc(C(=O)N(C)[C@@H](CC(C)C)C(=O)N2C[C@]3(C[C@H]2C#N)C(=O)Nc2ccccc23)cc2c1=NC(C1CC1)N=2 (stereo partly drawn) [Example 308] | > 7.00 | 6.00 to 7.00 |  | 
CN(C(=O)[C@@H](O)c1ccc(F)cc1)[C@@H](CC1CC1)C(=O)N1C[C@]2(C[C@H]1C#N)C(=O)Nc1ccccc12 [Example 414, (S)—N—((S)-1-((3R,5′S)-5′-cyano-2-oxospiro[indoline-3,3′-pyrrolidin]-1′-yl)-3-cyclopropyl-1-oxopropan-2-yl)-2-(4-fluorophenyl)-2-hydroxy-N-methyl acetamide] | > 7.00 | > 7.00 |  | 
[2H]C([2H])([2H])N(C(=O)[C@H](O)c1ccc(F)cc1)[C@@H](CC1CC1)C(=O)N1C[C@]2(C[C@H]1C#N)C(=O)Nc1ccccc12 [Example 422] | > 7.00 | > 7.00 |  | 
CC(C)C[C@@H](C(=O)N1C[C@]2(C[C@H]1C#N)C(=O)Nc1ccccc12)N(C)C(=O)c1cc(OC2CC2)c2c(c1)=NC(C1CC1)N=2 (stereo partly drawn) [Example 307] | 6.00 to 7.00 | 6.00 to 7.00 |  | 
Cc1cccc(CC(=O)N(C)[C@@H](CC(C)(C)F)C(=O)N2C[C@]3(C[C@H]2C#N)C(=O)Nc2ccc(Cl)cc23)n1 [Example 487] | > 7.00 |  |  | 
C=CC(=O)N(C)[C@@H](CC(C)(C)F)C(=O)N1C[C@]2(C[C@H]1C#N)C(=O)Nc1ccccc12 [Example 535, N—((S)-1-((3R,5′S)-5′-cyano-2-oxospiro[indoline-3,3′-pyrrolidin]-1′-yl)-4-fluoro-4-methyl-1-oxopentan-2-yl)-N-methylacrylamide] | 6.00 to 7.00 |  |  | 
CC(C)(C)n1cc(C(=O)N[C@@H](CC2CC2)C(=O)N2C[C@]3(C[C@H]2C#N)C(=O)Nc2ccccc23)cn1 [Example 132] | > 7.00 |  |  | 
CC(C)(C)C[C@H](NC(=O)Nc1ccc(F)cc1)C(=O)N1C[C@]2(C[C@H]1C#N)C(=O)Nc1ccccc12 [Example 441] | 6.00 to 7.00 |  |  | 
CC(C)C[C@@H](C(=O)N1C[C@]2(C[C@H]1C#N)C(=O)Nc1ccc(-c3ccsc3)cc12)N(C)C(=O)c1cc2c(F)cc(F)cc2[nH]1 [Example 513] | > 7.00 |  |  | 
CN(C)CCC(=O)N(C)[C@@H](CC(C)(C)F)C(=O)N1C[C@]2(C[C@H]1C#N)C(=O)Nc1ccccc12 [Example 539, N—((S)-1-((3R,5′S)-5′-cyano-2-oxospiro[indoline-3,3′-pyrrolidin]-1′-yl)-4-fluoro-4-methyl-1-oxopentan-2-yl)-3-(dimethylamino)-N-methylpropanamide] | > 7.00 |  |  | 
